In general, CC50 refers to the concentration giving 50% cytotoxicity. Low readings indicate greater toxicity to the cells, high ones lower toxicity to the cells.

Molecules are shown by their SMILES. Where a name gives a salt, the structure may show the parent alone.

Here are results for 59 compounds from article PMC6792352, “Limited Chemical Structural Diversity Found to Modulate Thyroid Hormone Receptor in the Tox21 Chemical Library” (Environmental Health Perspectives, 2019).

A short description of the first data set: in vitro. The conditions noted are these: rat, gh3-tre-luc cells, AC50 (uM) modified / 1000.
`Cc1ccc(NC(=O)c2ccc(CN3CCN(C)CC3)cc2)cc1Nc1nccc(-c2cccnc2)n1` [Imatinib mesylate] gave a CC50 at 24 h of 18.5 µM.
The same measure, in the same setting: then `COCc1cnc(C2=NC(C)(C(C)C)C(=O)N2)c(C(=O)O)c1` (centres unmarked) [Imazamox], with above 90 µM.
Same read-out and setting: then `Cc1cnc(C2=NC(=O)C(C)(C(C)C)N2)c(C(=O)O)c1` (centres unmarked) [Imazapic], with above 90 µM; and `CC(C)C1(C)N=C(c2ncccc2C(=O)O)NC1=O` (centres unmarked) [Imazapyr], with above 90 µM.
On the same count and under the same terms, then `CC(C)C1(C)N=C(c2nc3ccccc3cc2C(=O)O)NC1=O` (centres unmarked) [Imazaquin], with above 90 µM; and `CCc1cnc(C2=NC(C)(C(C)C)C(=O)N2)c(C(=O)O)c1` (centres unmarked) [Imazethapyr], with above 90 µM.
Turning to `O=C1CCC(c2ccc(-n3ccnc3)cc2)=NN1` [Imazodan], the CC50 at 24 h is above 50 µM.
On to `N=C1NC(=O)N2CC12` (centres unmarked) [Imexon], for which the CC50 at 24 h is above 50 µM.
`O=[N+]([O-])NC1=NCCN1Cc1ccc(Cl)nc1` [Imidacloprid] showed a CC50 at 24 h above 90 µM.
In turn, `CCOC(=O)[C@H](CCc1ccccc1)N[C@@H](C)C(=O)N1C(=O)N(C)C[C@H]1C(=O)O` [Imidapril hydrochloride] had a 50% cytotoxic concentration (CC50) at 24 h above 50 µM.
Turning to `c1c[nH]cn1` [Imidazole], the CC50 at 24 h is above 100 µM.
The same measure, in the same setting: then `O=C(NCNC(=O)NC1C(=O)NC(=O)N1CO)NC1C(=O)NC(=O)N1CO` (centres unmarked) [Imidazolidinyl urea], with above 90 µM; and `O=C(Nc1cccc(C2=NCCN2)c1)Nc1cccc(C2=NCCN2)c1` [Imidocarb dipropionate], with above 50 µM; and `NC(=O)NC(N)=O` [Imidodicarbonic diamide], with above 90 µM.
In turn, `CCn1ccnc1CC1COc2ccccc2O1` (centres unmarked) [Imiloxan] showed a half-maximal cytotoxic concentration (CC50) at 24 h above 50 µM.
On to `O=C(O)CNCC(=O)O` [Iminodiacetic acid], for which the CC50 at 24 h was above 5 µM.
For the compound `C[C@@H](O)[C@H]1C(=O)N2C(C(=O)O)=C(SCCN=CN)C[C@H]12` [Imipenem], the CC50 at 24 h was above 20 µM.
Still for that read-out and setting: with `C#CCN1CC(=O)N(COC(=O)C2C(C=C(C)C)C2(C)C)C1=O` (centres unmarked) [Imiprothrin] the figure was above 50 µM; with `CC(C)Cn1cnc2c(N)nc3ccccc3c21` [Imiquimod], above 50 µM.
Same read-out and setting: then `CC(C)=CCOc1c2occc2cc2ccc(=O)oc12` [Imperatorin], with above 50 µM; and `CS(=O)(=O)OCCCNCCCOS(C)(=O)=O` [Improsulfan tosylate], with above 50 µM.
On the same count and under the same terms, then `c1ccc2c(CCC3CCNCC3)c[nH]c2c1` [Indalpine hydrochloride], with 18.8 µM; and `CN[C@@H]1C[C@@H](c2ccc(Cl)c(Cl)c2)c2ccccc21` [Indatraline hydrochloride], with 10 µM.
On to `C1=Cc2ccccc2C1` [Indene], for which the CC50 at 24 h was above 90 µM.
Still for that read-out and setting: then `O=C1C(c2[nH]c3ccccc3c2O)=Nc2ccccc21` [Indigo dye], with above 90 µM; and `Cc1c(C)n(Cc2ccccc2)c2ccc(C(=O)OCCN(C)C)cc12` [Indocate], with 8.6 µM.
The same measure, in the same setting: then `CC1(C)C(/C=C/C=C/C=C/C=C2\N(CCCCS(=O)(=O)O)c3ccc4ccccc4c3C2(C)C)=[N+](CCCCS(=O)(=O)[O-])c2ccc3ccccc3c21` [Indocyanine green], with 19.5 µM.
With `O=C(O)Cc1c[nH]c2ccccc12` [Indole-3-acetic acid], the CC50 at 24 h was above 90 µM.
On the same count and under the same terms, with `O=C(O)CCCc1c[nH]c2ccccc12` [Indole-3-butyric acid] the figure was above 90 µM; with `OCc1c[nH]c2ccccc12` [Indole-3-carbinol], above 90 µM; with `O=C(O)C(=O)Cc1c[nH]c2ccccc12` [Indole-3-pyruvic acid], above 90 µM.
Consider `c1ccc2[nH]ccc2c1` [Indole], for which the half-maximal cytotoxic concentration (CC50) at 24 h was above 90 µM.
The compound `COc1ccc2c(c1)c(CC(=O)O)c(C)n2C(=O)c1ccc(Cl)cc1` [Indomethacin] yielded a CC50 at 24 h above 90 µM.
Still for that read-out and setting: with `CC(C(=O)O)c1ccc(N2Cc3ccccc3C2=O)cc1` (centres unmarked) [Indoprofen] the figure was above 50 µM; with `O=C(NC1CCN(CCc2c[nH]c3ccccc23)CC1)c1ccccc1` [Indoramin hydrochloride], 22.2 µM.
With `COC(=O)C(CN)c1c[nH]c2ccc(OC)cc12` (centres unmarked) [Indorenate hydrochloride], the CC50 at 24 h was above 50 µM.
Still for that read-out and setting: then `COC(=O)N(C(=O)N1CO[C@@]2(C(=O)OC)Cc3cc(Cl)ccc3C2=N1)c1ccc(OC(F)(F)F)cc1` [Indoxacarb], with above 70 µM.
For the compound `O=C(N[C@@H](Cc1ccccc1)[C@@H](O)C(=O)N1C[C@@H](O)[C@@H](O)C1)c1cc2cc(Cl)ccc2[nH]1` [Ingliforib], the midpoint of cytotoxicity, the CC50 at 24 h, lay at 78.2 µM.
The same measure, in the same setting: with `OC[C@H]1O[C@@H](n2cnc3c(O)ncnc32)[C@H](O)[C@@H]1O` [Inosine] the figure was above 50 µM; with `CC(=O)N(CC(C)C(=O)O)c1c(I)cc(I)c(N)c1I` (centres unmarked) [Iocetamic acid], above 20 µM; with `CC(=O)NCc1c(I)c(NC(C)=O)c(I)c(C(=O)O)c1I` [Iodamide], above 50 µM.
On the same count and under the same terms, with `O=C(CCCCC(=O)Nc1c(I)cc(I)c(C(=O)O)c1I)Nc1c(I)cc(I)c(C(=O)O)c1I` [Iodipamide] the figure was above 50 µM.
The same measure, in the same setting: then `CC(=O)N(CC(O)CN(C(C)=O)c1c(I)c(C(=O)NC[C@@H](O)CO)c(I)c(C(=O)NC[C@@H](O)CO)c1I)c1c(I)c(C(=O)NC[C@@H](O)CO)c(I)c(C(=O)NC[C@@H](O)CO)c1I` [Iodixanol], with above 20 µM; and `NC(=O)CI` [Iodoacetamide], with above 90 µM; and `O=C(O)C(Cc1cc(I)c(O)c(I)c1)c1ccccc1` (centres unmarked) [Iodoalphionic acid], with above 50 µM.
As to `Cc1c(I)c(=O)n(-c2ccccc2)n1C` [Iodoantipyrine], the CC50 at 24 h is above 50 µM.
In turn, `IC(I)I` [Iodoform] registered a CC50 at 24 h above 90 µM.
The same measure, in the same setting: then `O=C1C(I)=CC(=C(c2cc(I)c(O)c(I)c2)c2ccccc2C(=O)O)C=C1I` [Iodophthalein sodium], with 41.3 µM.
Take `O=C1OC(c2cc(I)c(O)c(I)c2)(c2cc(I)c(O)c(I)c2)c2ccccc21` [Iodophthalein]: it took 36.2 µM to reach half-maximal cytotoxicity (CC50 at 24 h). The CC50 at 24 h values of the last two compounds are within 1.5-fold of each other.
Same read-out and setting: with `Oc1c(I)cc(I)c2cccnc12` [Iodoquinol] the figure was above 50 µM; with `COC(=O)c1ccc(I)cc1S(=O)(=O)NC(=O)Nc1nc(C)nc(OC)n1` [Iodosulfuron-methyl-sodium], above 90 µM; with `CCOC(=O)c1ncn2c1CN(C)C(=O)c1c(I)cccc1-2` [Iomazenil], above 50 µM.
As to `CN(C(=O)CO)c1c(I)c(C(=O)NCC(O)CO)c(I)c(C(=O)NCC(O)CO)c1I` (centres unmarked) [Iomeprol], the CC50 at 24 h was above 50 µM.
For the compound `C[C@H](O)C(=O)Nc1c(I)c(C(=O)NC(CO)CO)c(I)c(C(=O)NC(CO)CO)c1I` [Iopamidol], the CC50 at 24 h is above 20 µM.
Still for that read-out and setting: then `CCC(Cc1c(I)cc(I)c(O)c1I)C(=O)O` (centres unmarked) [Iophenoxic acid], with above 50 µM; and `O=C(NCC(O)CO)c1c(I)c(C(=O)NCC(O)CO)c(I)c(N(CCO)C(=O)CO)c1I` (centres unmarked) [Ioversol], with above 20 µM.

The same data set, now with this note: rat, gh3-tre-luc cells, AC50 (uM) modified / 1000, Tox21_110001=Tox21_111239; viability, 1 nM T3 present, 24 h.
In the case of `CC(C)NC(C)Cc1ccc(I)cc1` (centres unmarked) [Iofetamine hydrochloride], the 50% cytotoxic concentration (CC50) at 24 h was above 50 µM.

Staying with this data set, now noted: rat, gh3-tre-luc cells, AC50 (uM) modified / 1000, Tox21_110001=Tox21_300910; viability, 1 nM T3 present, 24 h.
Consider `COP(=S)(OC)Oc1cc(Cl)c(I)cc1Cl` [Iodenphos], for which the CC50 at 24 h is above 90 µM.

The same data set, now with this note: rat, gh3-tre-luc cells, AC50 (uM) modified / 1000, Tox21_110001=Tox21_301075; viability, 1 nM T3 present, 24 h.
On to `N#CCNCC#N` [Iminodiacetonitrile], for which the cytotoxic concentration (CC50) at 24 h was above 90 µM.
